Source: PMC5830615 (Scientific Reports, 2018)
Each block holds one compound with its values, some of them ahead of it.

Assays:
[1] = tested on: H188 (Epac1-based cAMP biosensor); assay: FRET response of biosensor H188 to cAMP analogs and Epac inhibitors in HEK293-H188-C24 cells; assay type: cell-based; conditions: for Effect on ΔFRET measured in response to 8-pCPT-2′-O-Me-cAMP-AM: Epac inhibitor co-applied
Excerpt: H188 contains the cAMP sensor Epac1 in which the full-length protein is truncated to remove the Disheveled, Egl-10, and Pleckstrin (DEP) membrane-targeting domain so that its expression is confined largely to the cytoplasm (Fig. 2a,b)[30]. T781A and F782A mutations introduced within the CDC25 homology domain disrupt guanine nucleotide exchange factor (GEF) activity so that binding of cAMP to H188 is not linked to downstream signaling events mediated by the Epac1 effector protein Rap1 GTPase (Fig. 2a)[30]. In H188 the Epac1 backbone is flanked by an mTurquoise2Δ FRET donor chromophore at the N-terminus, and tandem cp173 Venus-Venus FRET acceptor chromophores at the C-terminus (Fig. 2a). Binding of cAMP reduces FRET so that when exciting with 440 nm light, there is an increase of 485 nm (mTuquoise2Δ) and a decrease of 535 nm (cp173 Venus-Venus) emission fluorescence. This ΔFRET is measured as an increase of the 485/535 nm FRET ratio.
HEK293-H188-C24 cells stably expressing H188 were plated at 80% confluence on 96-well clear-bottom assay plates (Costar 3904, Corning, NY) coated with rat tail collagen (Collaborative Biomedical Products, Bedford, MA). HEK293 cells stably expressing select GPCRs were transduced for 16 hours with H188 virus at a density of ca. 60,000 cells/well under conditions in which the multiplicity of infection (m.o.i.) was equivalent to 25 viral particles per cell. For all assays, the culture media was then removed and replaced by 200 μl/well of a standard extracellular saline (SES) solution supplemented with 11 mM glucose and 0.1% BSA[31],[34]–[36]. The composition of the SES was (in mM): 138 NaCl, 5.6 KCl, 2.6 CaCl2, 1.2 MgCl2, 11.1 glucose, and 10 Hepes (295 mOsmol, pH 7.4). Real-time kinetic assays of FRET were performed using a FlexStation 3 microplate reader equipped with monochromators (Molecular Devices, Sunnyvale, CA). Excitation light was delivered at 435/9 nm (455 nm cut-off), and emitted light was detected at 485/15 nm (CFP) or 535/15 nm (YFP)[31],[34]–[36]. The emission intensities were the averages of 12 excitation flashes for each time point per well. Test solutions dissolved in SES were placed in V-bottom 96-well plates (Greiner Bio-One, Monroe, NC), and an automated pipetting procedure was used to transfer 50 μl of each test solution to each well of the assay plate containing monolayers of these cells. The 485/535 emission ratio was calculated for each well and the mean +/− s.d. values for 12 wells were averaged. To facilitate comparisons amongst different experiments, these FRET ratio values were normalized using baseline subtraction so that a y-axis value of 1 corresponds to the initial baseline FRET ratio, whereas a value of 2 corresponds to a doubling of the FRET ratio. The time course of the ΔFRET ratio was plotted after exporting data to Origin 8.0 (OriginLab, Northampton, MA). Origin 8.0 was also used for generation of Hill plots describing dose-response relationships.

human NPY2R = target: T1, human NPY2R (Homo sapiens, UniProt P49146); assay: FRET assay, inhibition of adenosine-stimulated cAMP production in HEK293-H188-C24 cells transfected with human NPY2R; assay type: cell-based; conditions: BIIE0246 300 nM; adenosine 2 μM
T1 construct: 3xHA (own knowledge: 'TN' in the cDNA Resource Center clone ID denotes an N-terminal 3xHA tag); host or cells: HEK293-H188-C24 (transient transfection, pcDNA3.1)
T1 sequence (P49146 1-381): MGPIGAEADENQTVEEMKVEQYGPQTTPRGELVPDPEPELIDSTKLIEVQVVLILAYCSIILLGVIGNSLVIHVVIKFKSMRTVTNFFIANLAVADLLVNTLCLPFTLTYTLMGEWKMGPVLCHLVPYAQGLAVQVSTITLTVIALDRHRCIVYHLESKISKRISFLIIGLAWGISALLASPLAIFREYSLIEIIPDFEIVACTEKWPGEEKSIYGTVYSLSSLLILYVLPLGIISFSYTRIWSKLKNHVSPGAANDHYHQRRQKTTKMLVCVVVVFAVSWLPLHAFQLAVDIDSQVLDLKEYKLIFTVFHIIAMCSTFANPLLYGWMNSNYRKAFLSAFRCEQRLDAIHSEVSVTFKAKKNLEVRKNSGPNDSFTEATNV
Experimental: (§1) Transient transfections were performed using Lipofectamine and Plus Reagent (Thermo Fisher) using methodology described previously by our laboratory for HEK293 cells. […] Plasmid encoding human NPY2R (I.D. NPYR20TN00) in pcDNA3.1 was from the University of Missouri-Rolla cDNA Resource Center (Rolla, MO). Individual clones of HEK293 cells stably expressing select FRET reporters were obtained by G418 antibiotic resistance selection, as described previously. Adenovirus for transduction of HEK293 cells with H188 was generated by a commercial vendor (ViraQuest, North Liberty, IA) using the shuttle vector pVQAd CMV K-NpA and the H188 plasmid originally created by Klarenbeek and co-workers[30].
(§2) HEK293-H188-C24 cells stably expressing H188 were plated at 80% confluence on 96-well clear-bottom assay plates (Costar 3904, Corning, NY) coated with rat tail collagen (Collaborative Biomedical Products, Bedford, MA). […] Real-time kinetic assays of FRET were performed using a FlexStation 3 microplate reader equipped with monochromators (Molecular Devices, Sunnyvale, CA). Excitation light was delivered at 435/9 nm (455 nm cut-off), and emitted light was detected at 485/15 nm (CFP) or 535/15 nm (YFP)[31],[34]–[36]. […]

human GLP-1R = assay: FRET cAMP assay in HEK293-GLP-1R cells (stable human GLP-1R) virally transduced with H188; assay type: cell-based; conditions: HEK293-GLP-1R cells transduced with H188
Experimental: (§3) HEK293-H188-C24 cells stably expressing H188 were plated at 80% confluence on 96-well clear-bottom assay plates (Costar 3904, Corning, NY) coated with rat tail collagen (Collaborative Biomedical Products, Bedford, MA). HEK293 cells stably expressing select GPCRs were transduced for 16 hours with H188 virus at a density of ca. 60,000 cells/well under conditions in which the multiplicity of infection (m.o.i.) was equivalent to 25 viral particles per cell. For all assays, the culture media was then removed and replaced by 200 μl/well of a standard extracellular saline (SES) solution supplemented with 11 mM glucose and 0.1% BSA[31],[34]–[36]. The composition of the SES was (in mM): 138 NaCl, 5.6 KCl, 2.6 CaCl2, 1.2 MgCl2, 11.1 glucose, and 10 Hepes (295 mOsmol, pH 7.4). Real-time kinetic assays of FRET were performed using a FlexStation 3 microplate reader equipped with monochromators (Molecular Devices, Sunnyvale, CA). Excitation light was delivered at 435/9 nm (455 nm cut-off), and emitted light was detected at 485/15 nm (CFP) or 535/15 nm (YFP)[31],[34]–[36]. The emission intensities were the averages of 12 excitation flashes for each time point per well.

wild-type HEK293 cells = assay: FRET cAMP assay in wild-type HEK293 cells transduced with H188 (negative control); assay type: cell-based, human; conditions: WT HEK293 lacking recombinant receptors, H188 virus; IBMX at 50 μM
Experimental: as §3

[2] = tested on: HEK293-H188-C24 cells, empty vector (EV); assay: FRET cAMP assay in HEK293-H188-C24 cells transfected with negative control empty vector; assay type: cell-based, human; conditions: GLP-1 and exendin-4 at 10 nM
Experimental: as §1, §2

adenosine A2B receptor = assay: FRET cAMP assay, endogenous adenosine A2B receptors in untransfected HEK293-H188-C24 cells; assay type: cell-based, human; conditions: read-out: Kd for antagonist action versus adenosine; versus 4 μM adenosine
Experimental: HEK293 cells stably expressing select GPCRs were transduced for 16 hours with H188 virus at a density of ca. 60,000 cells/well under conditions in which the multiplicity of infection (m.o.i.) was equivalent to 25 viral particles per cell. For all assays, the culture media was then removed and replaced by 200 μl/well of a standard extracellular saline (SES) solution supplemented with 11 mM glucose and 0.1% BSA[31],[34]–[36]. […] Real-time kinetic assays of FRET were performed using a FlexStation 3 microplate reader equipped with monochromators (Molecular Devices, Sunnyvale, CA). […] The emission intensities were the averages of 12 excitation flashes for each time point per well.

SMILES: CC(=O)Oc1ccc(CO)cc1 [4-Abn-OH, 4-acetoxybenzyl alcohol]
Effect on ΔFRET measured in response to forskolin [1]: not blocked

Effect on inhibitory actions of EP45 (1,000 nM) and PYY(3–36) (300 nM) (human NPY2R): reduced the inhibitory actions
SMILES: N=C(N)NCCC[C@H](NC(=O)CC1(CC(=O)N2CCN(C3c4ccccc4NC(=O)c4ccccc43)CC2)CCCC1)C(=O)NCCn1c(=O)n(-c2ccccc2)n(-c2ccccc2)c1=O (stereo partly shown) [BIIE0246]

SMILES: CC1CCc2c(cc(Br)c(F)c2Br)N1C=O (stereo not shown) [CE3F4]
Effect on baseline FRET ratio when administered alone [1]: unaffected | Effect on ΔFRET measured in response to 8-pCPT-2′-O-Me-cAMP-AM [1]: reduced

SMILES: Nc1ncnc2c1ncn2[C@H]1CC[C@@H](CO)O1 [DDA]
Effect on the cAMP-elevating action of GLP-1 (human GLP-1R): suppressed the action of GLP-1

SMILES: Cc1ccc(S(=O)(=O)c2c(C)cc(C)cc2C)cc1 [ESI-05]
Effect on baseline FRET ratio when administered alone [1]: unaffected | Effect on ΔFRET measured in response to 8-pCPT-2′-O-Me-cAMP-AM [1]: without effect

SMILES: CC[C@H](C)[C@H](NC(=O)[C@H](Cc1ccccc1)NC(=O)[C@H](CCC(=O)O)NC(=O)[C@H](CCCCN)NC(=O)[C@H](C)NC(=O)[C@H](C)NC(=O)[C@H](CCC(N)=O)NC(=O)CNC(=O)[C@H](CCC(=O)O)NC(=O)[C@H](CC(C)C)NC(=O)[C@H](Cc1ccc(O)cc1)NC(=O)[C@H](CO)NC(=O)[C@H](CO)NC(=O)[C@@H](NC(=O)[C@H](CC(=O)O)NC(=O)[C@H](CO)NC(=O)[C@@H](NC(=O)[C@H](Cc1ccccc1)NC(=O)[C@@H](NC(=O)CNC(=O)[C@H](CCC(=O)O)NC(=O)[C@H](C)NC(=O)[C@@H](N)Cc1c[nH]cn1)[C@@H](C)O)[C@@H](C)O)C(C)C)C(=O)N[C@@H](C)C(=O)N[C@@H](Cc1c[nH]c2ccccc12)C(=O)N[C@@H](CC(C)C)C(=O)N[C@H](C(=O)N[C@@H](CCCCN)C(=O)NCC(=O)N[C@@H](CCCNC(=N)N)C(N)=O)C(C)C [GLP-1, glucagon-like peptide-1]
Effect on levels of cAMP in wild-type HEK293 cells (wild-type HEK293 cells): no such effect | Effect on levels of cAMP in empty vector cells [2]: without effect

SMILES: CCCn1c(=O)c2[nH]c(-c3cnn(Cc4cccc(C(F)(F)F)c4)c3)nc2n(CC)c1=O [GS6201]
Kd (adenosine A2B receptor): 163 nM
